Here are results for three substances from patent US11957739B2, “Compositions and methods for treating cancer using RHOA dominant negative forms” (Dana-Farber Cancer Institute, Inc., priority 2017, dated 2024).

For one experiment, the system named is NUGC4 tumor. Description: NUGC4 xenograft tumor growth with Dox-induced mutant RHOA expression. It is filed as in vivo. As to conditions: E-cadherin loss DGC cells in flank of nude mice; Dox food after 2 weeks; P<0.0001 Ctrl vs T19N. The method, then: Diffuse gastric cancer (DGC) NUGC4 cells were confirmed for total E-cadherin loss by Western blot analysis. The cells were then stably infected with Dox-inducible lenti-RHOA virus using puro selection. Three million NUGC4 cells were injected into the flank of nude mice. After 2 weeks, regular food was changed to food with Dox in order to induce mutant RHOA expression. N=3 mice for each group. P<0.0001: Ctrl-VS-T19N.
(§1) The 4-week-old male nude mice (BALB/cA-nu (nu/nu)) were injected subcutaneously at each flank with cells infected with dox inducible control or RHOA mutant virus. All animals were maintained and used in accordance with the guidelines of the Institutional Animal Care and Use Committee of Dana-Farber Cancer Institute.

A further experiment deals with CDH1-null cells. Description: Ectopic expression of RHOA dominant negative forms in CDH1-null cells. The experiment is classed as cell-based. The source says: (§2) Diffuse Gastric Cancer (DGC) is a highly lethal variant of gastric cancer, which is prone to early invasion and metastasis, and lacks effective molecularly targeted therapies. DGC initiation typically follows loss of tumor suppressor CDH1 which encodes the cellular adhesion protein E-cadherin. Reduction in and/or loss of E-cadherin (CDH1) is the key hallmark of invasive lobular breast cancer and loss-of-function mutations targeting CDH1 are present in 50%-60% of invasive lobular breast cancer and are believed to be an early event often observed in matching lobular carcinoma in situ (McCart Reed et al. (2015) Breast Cancer Res. 17:12). […] These findings indicate that RHOA dominant negative forms can be used as an effective therapy for DGC and lobular breast cancer as well as other cancers with the EMT phenotype.

A further experiment deals with MKN45 tumor. Description: MKN45 xenograft tumor growth with Dox-induced mutant RHOA expression. It is filed as in vivo. To be noted: E-cadherin loss diffuse adenocarcinoma cells in flank of nude mice; Dox food after 2 weeks; P<0.0001 Ctrl vs T19N. As for the experimental part: The diffuse adenocarcinoma MKN45 cells were confirmed for total E-cadherin loss by Western blot analysis. The cells were then stably infected with Dox-inducible lenti-RHOA virus using puro selection. Three million MKN45 cells were injected into the flank of nude mice. After 2 weeks, regular food was changed to food with Dox in order to induce mutant RHOA expression. N=3 mice for each group. P<0.0001: Ctrl-VS-T19N.
as §1

The test system of experiment [1] is CDH1-null breast epithelial MCF10A cells. Description: Cell titer glo assay in MCF10A-CDH1-KO cells with Dox-inducible RHOA mutant virus. The experiment is classed as cell-based. To be noted: Dox-inducible expression. As for the experimental part: (§3) Isogenic MCF10A-CDH1-intact cells were infected with different constitutive RHOA mutant virus and the stably infected cells were selected by adding puro for 1 week. The cells were then plated in 96-well plates for analysis using a cell titer glo assay. The MCF10A-CDH1-K0 cells were infected with different Dox-inducible RHOA mutant viruses and the stably-infected cells were selected by adding puro for 1 week. The cells were then plated in 96-well plates with Dox induction for cell titer glo assay analysis.
(§4) Cell viability assay was performed by following the protocol of CellTiter-Glo® (Promega, Cat #G7570).
In general terms: Cellular ATP, detected with luciferase, serves as a proxy for viable cell number.

For a further experiment, the system named is cells with intact CDH1. Description: Ectopic expression of RHOA dominant negative forms in cells with intact CDH1. The experiment is classed as cell-based.
Excerpt: as §2

The test system of another experiment is CDH1-intact MCF10A cells. Description: Cell titer glo assay in isogenic MCF10A-CDH1-intact cells with constitutive RHOA mutant virus. It is filed as cell-based. As to conditions: constitutive expression. The method, then: as §3, §4
For experiment [2], the system named is CDH1-null stomach organoids. Description: RHOA ectopic expression in isogenic stomach organoids after tamoxifen-induced E-cadherin loss. It is filed as cell-based, mouse. As to conditions: ectopic expression by lentivirus; Mist1CreER, Cdh1F/F organoids treated with tamoxifen to induce E-cadherin loss. The method, then: Mist1CreER, Cdh1^F/F organoids were infected with plx307 lenti-EGFP/RHOA-WT/RHO-T19N virus, and the stably infected organoids were selected by adding puro for 1 week. The cells were then treated with or without tamoxifen to activate Cre to induce E-cadherin loss. The RHOA ectopic expression and E-Cadherin loss were validated both Western blot and Tomato/GFP color switch determinations.
Mist1-CreERT2, Cdh1flox/flox, Tomation/GFP mice, which carry conditional alleles with loxP sites flanking exon 2-3 of Cdh1, were kindly provided by Timothy C. Wang at Columbia University. Cre recombinase was activated by oral administration of tamoxifen (Sigma, T5648) TAM (1-5 mg/0.2 ml corn oil, as indicated). All animal studies and procedures were approved by the ethics committees at Dana-Farber Cancer Institute.
The protocol as previously described in Miyoshi et al. (2013) Nat. Prot. 8:2471-2482 was performed as follows: Euthanize mice using a chemical reagent, open the stomach longitudinally and roughly remove contents on the paper towel. Rinse the tissue with ice cold PBS in a 90 mm petri dish, then wash the tissue with […] ice cold PBS in a 50 ml centrifuge tube by vigorous shaking. After washing, place the tissue in a 35 mm petri dish and bring the dish to a biological hood and mince the tissue with fine scissors. […]

For “RHOA-T19N: Human RHOA T19N dominant negative form (SEQ ID NO: 1), ectopically expressed from lentivirus”, in the experiment with NUGC4 tumor, the NUGC4 tumor growth entry was “significantly inhibit”. Besides, in the experiment with CDH1-null cells, the “cell-death in CDH1-null cells” value is recorded as “induction of cell-death” and the “proliferation of CDH1-null cells” value is listed as “significant inhibition of proliferation”. Also, the MKN45 tumor growth entry with MKN45 tumor is on record as “significantly inhibit”. In addition, in experiment [1], the “killing of CDH1-null MCF10A cells” value is “specifically kills”. Besides, the “inhibition of proliferation and induction of cell-death in cells with intact CDH1” value in the experiment with cells with intact CDH1 is recorded as “not in cells with intact CDH1”. For the same substance, in the experiment on CDH1-intact MCF10A cells, the “effect on CDH1-intact MCF10A cells” value is “spares”. In addition, the “killing of CDH1-null stomach organoids” value in experiment [2] is “specifically kills”.
“G17E: Human RHOA G17E dominant negative form (SEQ ID NO: 3), ectopically expressed”: in the experiment on CDH1-null cells, the “cell-death in CDH1-null cells” value is recorded as “induction of cell-death” and the “proliferation of CDH1-null cells” value was “significant inhibition of proliferation”. Further, in the experiment with cells with intact CDH1, the “inhibition of proliferation and induction of cell-death in cells with intact CDH1” value was “not in cells with intact CDH1”.
In the same order, the values of “G17V: Human RHOA G17V dominant negative form (SEQ ID NO: 2), ectopically expressed” are “induction of cell-death”, “significant inhibition of proliferation” and “not in cells with intact CDH1”.
